# Data from patent US6399824B1, “Substituted cinnamic, acid guanidides, process for their preparation, their use as a medicament, and medicament comprising them” (Aventis Pharma Deutschland GmbH, priority 2000, dated 2002).
# Counter-ions that a name gives are not always drawn.
# Key:
# rNHE3 = molecular target: T1, rNHE3 (Rattus norvegicus, UniProt P26433); assay: Recovery of intracellular pH (pHi) after acidification, BCECF fluorescence, NHE inhibition; type: cell-based; conditions: pH recovery recorded 3 minutes for NHE3; bicarbonate-free conditions
# T1 construct: expressed in transfected cells
# T1 sequence (P26433 29-831): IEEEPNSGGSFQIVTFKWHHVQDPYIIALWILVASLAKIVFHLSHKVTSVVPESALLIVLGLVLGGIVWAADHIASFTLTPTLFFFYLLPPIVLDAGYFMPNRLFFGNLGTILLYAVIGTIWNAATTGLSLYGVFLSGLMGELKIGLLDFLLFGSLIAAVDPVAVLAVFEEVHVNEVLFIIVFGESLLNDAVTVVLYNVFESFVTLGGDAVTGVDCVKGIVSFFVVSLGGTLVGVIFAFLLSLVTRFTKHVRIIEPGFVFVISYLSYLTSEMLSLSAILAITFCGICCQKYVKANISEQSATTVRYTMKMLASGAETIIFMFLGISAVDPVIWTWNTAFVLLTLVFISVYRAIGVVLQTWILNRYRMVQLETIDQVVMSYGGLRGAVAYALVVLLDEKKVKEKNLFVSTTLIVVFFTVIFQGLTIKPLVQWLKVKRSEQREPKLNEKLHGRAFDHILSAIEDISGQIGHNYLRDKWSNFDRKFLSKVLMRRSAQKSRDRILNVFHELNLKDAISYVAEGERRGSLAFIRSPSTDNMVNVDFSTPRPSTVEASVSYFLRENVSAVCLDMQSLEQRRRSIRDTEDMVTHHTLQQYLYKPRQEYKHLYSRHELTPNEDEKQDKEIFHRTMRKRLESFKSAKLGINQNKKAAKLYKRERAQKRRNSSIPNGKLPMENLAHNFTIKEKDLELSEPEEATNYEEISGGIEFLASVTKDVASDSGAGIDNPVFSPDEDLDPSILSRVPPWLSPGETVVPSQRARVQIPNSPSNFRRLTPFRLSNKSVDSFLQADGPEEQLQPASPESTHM
# Protocol: In this test, the recovery of the intracellular pH (pHi) which commences with functional NHE after acidification even under bicarbonate-free conditions. For this, the pHi was determined using the pH-sensitive fluorescent dye BCECF (Calbiochem, the precursor BCECF-AM is employed). The cells were first loaded with BCECF. The BCECF fluorescence was determined in a ratio fluorescence spectrometer (Photon Technology International, South Brunswick, N.J., USA) at excitation wavelengths of 505 and 440 nm and an emission wavelength of 535 nm and converted into the pHi by means of calibration curves. During BCECF loading, the cells were already incubated in NH4Cl buffer (pH 7.4) (NH4Cl buffer: 115 mM NaCl, 20 mM NH4Cl, 5 mM KCl, 1 mM CaCl2, 1 mM MgSO4, 20 mM Hepes, 5 mM glucose, 1 mg/ml of BSA; a pH of 7.4 is set using 1 M NaOH). The intracellular acidification was induced by addition of 975 μl of an NH4Cl-free buffer (see below) to 25 μl aliquots of the cells incubated in NH4Cl buffer. The subsequent rate of the pH recovery was recorded for 2 minutes in the case of NHE1, for 5 minutes in the case of NHE2 and 3 minutes in the case of NHE3. For the calculation of the inhibitory potency of the tested substances, the cells were first investigated in buffers in which a complete recovery or no pH recovery at all took place. For complete pH recovery (100%), the cells were incubated in Na^+-containing buffer (133.8 mM NaCl, 4.7 mM KCl, 1.25 mM CaCl2, 1.25 mM MgCl2, 0.97 mM Na2HPO4, 0.23 mM NaH2PO4, 5 mM Hepes, 5 mM glucose, a pH of 7.0 is set using 1 M NaOH). For the determination of the 0% value, the cells were incubated in an Na^+-free buffer (133.8 mM choline chloride, 4.7 mM KCl, 1.25 mM CaCl2, 1.25 mM MgCl2, 0.97 mM K2HPO4, 0.23 mM KH2PO4, 5 mM Hepes, 5 mM glucose, a pH of 7.0 is set using 1 M NaOH). The substances to be tested were applied in the Na^+-containing buffer. The recovery of the intracellular pH at any tested concentration of a substance was expressed as a percentage of the maximum recovery. By means of the program Sigma Plot, the IC50 value of the respective substance for the individual NHE subtypes was calculated from the percentage values of the pH recovery.
# [1] = Solubility by UV spectroscopy in 0.9% strength NaCl solution; type: physicochemical; conditions: 0.9% NaCl solution, saline or isotonic
# Protocol: The solubilities indicated below are determined by UV spectroscopy in a 0.9% strength NaCl solution.
smiles,measurement,setting,value
"C/C(=C\c1cc(F)c(Oc2ccc(S(N)(=O)=O)cc2)c(F)c1)C(=O)N=C(N)N [Example 1, 4-[2,6-Difluoro-4-(3-guanidino-2-methyl-3-oxopropenyl)phenoxy]benzenesulfonamide; HCl salt]",IC50,rNHE3,70 nM
"C/C(=C\c1cc(F)c(Oc2ccc(S(N)(=O)=O)cc2)c(F)c1)C(=O)N=C(N)N [Example 2, 4-[2,6-Difluoro-4-(3-guanidino-2-methyl-3-oxopropenyl)phenoxy]benzenesulfonamide; methanesulfonate]",IC50,rNHE3,20 nM
"C/C(=C\c1ccc(Oc2ccc(S(N)(=O)=O)cc2)cc1)C(=O)N=C(N)N [Example 3, 4-[4-(3-Guanidino-2-methyl-3-oxopropenyl)phenoxy]benzenesulfonamide; HCl salt]",IC50,rNHE3,130 nM
"C/C(=C\c1ccc(Nc2ccc(S(N)(=O)=O)cc2)cc1)C(=O)N=C(N)N [Example 4, 4-[4-(3-Guanidino-2-methyl-3-oxopropenyl)phenylamino]benzenesulfonamide; trifluoroacetate]",IC50,rNHE3,620 nM
"C/C(=C\c1ccc(Nc2cccc(S(N)(=O)=O)c2)cc1)C(=O)N=C(N)N [Example 5, 3-[4-(3-Guanidino-2-methyl-3-oxopropenyl)phenylamino]benzenesulfonamide, trifluoroacetate]",IC50,rNHE3,1200 nM
"C/C(=C\c1cc(F)c(Oc2ccc(S(=O)(=O)NCCN(C)C)cc2)c(F)c1)C(=O)N=C(N)N.Cl.Cl [Example 6, 4-[2 ,6-Difluoro-4-(3-guanidino-2-methyl-3-oxopropenyl)phenoxy]-N-(2-dimethylaminoethyl)benzenesulfonamide, HCl salt]",IC50,rNHE3,60 nM
same,solubility,[1],1860 µg/mL
"C/C(=C\c1cc(F)c(Oc2ccc(S(=O)(=O)N3CCN(C)CC3)cc2)c(F)c1)C(=O)N=C(N)N [Example 7, N-(3-{3,5-Difluoro-4-[4-(4-methylpiperazin-1-sulfonyl)phenoxy]phenyl}-2-methyl-acryloyl)guanidine; trifluoroacetate]",IC50,rNHE3,2600 nM
same,solubility,[1],> 2190 µg/mL
"CNC(=O)NS(=O)(=O)c1ccc(Oc2c(F)cc(/C=C(\C)C(=O)N=C(N)N)cc2F)cc1 [Example 8, 4-[2 ,6-Difluoro-4-(3-guanidino-2-methyl-3-oxopropenyl)phenoxy]benzenesulfone N-(carboxy-N′-methylamid)amide; HCl salt]",IC50,rNHE3,90 nM
"CCNC(=O)NS(=O)(=O)c1ccc(Oc2c(F)cc(/C=C(\C)C(=O)N=C(N)N)cc2F)cc1 [Example 9, 4-[2,6-Difluoro-4-(3-guanidino-2-methyl-3-oxopropenyl)phenoxy]benzenesulfone N-(carboxy-N′-ethylamid)amide; HCl salt]",IC50,rNHE3,70 nM
"C/C(=C\c1ccc(Nc2ccc(S(=O)(=O)NCCN(C)C)cc2)cc1)C(=O)N=C(N)N.Cl.Cl [Example 10, N-(2-Dimethylaminoethyl)-4-[4-(3-guanidino-2-methyl-3-oxopropenyl)phenylamino]-benzenesulfonamide; HCl salt]",IC50,rNHE3,1100 nM
same,solubility,[1],1280 µg/mL
"C/C(=C\c1ccc(Nc2ccc(S(=O)(=O)NCCN3CCCC3)cc2)cc1)C(=O)N=C(N)N.Cl.Cl [Example 11, 4-[4-(3-Guanidino-2-methyl-3-oxopropenyl)phenylamino]-N-(2-pyrrolidin-1-ylethyl)-benzenesulfonamide; HCl salt]",IC50,rNHE3,850 nM
same,solubility,[1],1520 µg/mL
"C/C(=C\c1ccc(Nc2ccc(S(=O)(=O)N3CCN(C)CC3)cc2)cc1)C(=O)N=C(N)N.Cl.Cl [Example 12, N-(2-Methyl-3-{4-[4-(4-methylpiperazine-1-sulfonyl)phenylamino]phenyl}acryloyl)-guanidine; HCl salt]",IC50,rNHE3,2600 nM
same,solubility,[1],1760 µg/mL
"C/C(=C\c1ccc(Nc2ccc(S(=O)(=O)N(C)C3CCN(C)C3)cc2)cc1)C(=O)N=C(N)N.Cl.Cl (centres unmarked) [Example 13, 4-[4-(3-Guanidino-2-methyl-3-oxopropenyl)phenylamino]-N-methyl-N-(1-methyl-pyrrolidin-3-yl)benzenesulfonamide, HCl salt]",IC50,rNHE3,590 nM
same,solubility,[1],3080 µg/mL
"CNS(=O)(=O)c1ccc(Nc2ccc(/C=C(\C)C(=O)N=C(N)N)cc2)cc1 [Example 14, 4-[4-(3-Guanidino-2-methyl-3-oxopropenyl)phenylamino]-N-methylbenzenesulfonamide; HCl salt]",IC50,rNHE3,850 nM
